Assay: Powder dissolution
Type: physicochemical
Conditions: compared to commercially available progesterone

dissolution rate: increase in dissolution rate
Substance: progesterone:vanillic acid [Cocrystal 1]
progesterone concentration over time: sustained progesterone concentration over time
